For test [1], the system named is HBCx-22 luminal ER+ breast PDX. The settings on record: cited from earlier work.
Test [2] concerns HBCx-95 triple-negative breast tumor PDX. Description: breast tumor PDX model of acquired resistance to Capecitabine. Format: in vivo, mice. Here is the method: (a) n=6 mice with HBCx-95 derivatives were treated with Capecitabine for 6 weeks. Graphs represent relative tumor volumes (RTV, mm3) with time. Mice with recurrent tumors were treated for a second round of Capecitabine when PDX reached a volume of over 200 mm3 (mice #35, #40 & #33). […] Samples studied in manuscript are indicated with a dashed rectangle. (b) Histograms of the distribution of scChIP-seq raw and unique sequencing reads per cell in untreated HBCx-95 and Capecitabine-resistant HBCx-95-CapaR PDX. (c) Scatter plot displaying the log 2 enrichments in cumulative single-cell versus bulk H3K27me3 ChIP-seq data, calculated based on the counts per million mapped reads in 50 kb genomic bins. Pearson correlation score and p-value are computed genome-wide. (d) Distribution of the log 2 enrichments in 50 kb genomic bins for cumulative single-cell and bulk H3K27me3 ChIP-seq data. Amplitude between maximum and minimum log 2 enrichments are indicated on the top right for each ChIP-seq method (either bulk or single-cell).
It was profiled the H3K27me3 landscape at single-cell resolution for both sensitive and resistant xenografts, HBCx-95 and HBCx-95-CapaR (FIG. 17b), and it was also performed scRNA-seq to evaluate transcriptional heterogeneity within the same cell suspension (FIG. 18a). Cumulative single-cell chromatin profiles match bulk ChIP-seq profiles (FIG. 17c-d, r=0.89 with p<10-15).

The target of a further test is MNase (Staphylococcus aureus, UniProt P00644). The test is described as follows: EGTA inactivation of MNase activity in droplets. The format is biochemical. Conditions: fraction of oligonucleotide remaining measured by TapeStation, normalized to droplets without MNase. Here is the method: FIG. 3 depicts the concentration of EGTA necessary to fully inactivates MNase activity in droplets. The fraction of oligonucleotide remaining after incubation was measured by TapeStation and normalized to the digestion negative control (i.e droplets without MNase). 26 mM final concentration of EGTA fully inactivated MNase in droplets.
At the end of the encapsulation, droplets are incubated off-chip for single-cell chromatin fragmentation. Cells are lysed in droplets, making their nuclear DNA accessible for MNase enzyme. The kinetic of the digestion is particularly important to yield preferentially mono-nucleosomes, which are retained in the droplet. The ideal incubation time is defined as the time necessary to get 100% of nuclear DNA fragmented into mono-nucleosomes. The digestion conditions including lysis buffer composition, MNase concentration and incubation time are precisely calibrated for each sample by performing a time-course study. The calibration is carried out as follows: 45 pl droplets containing cells, lysis buffer and MNase are produced, collected in a collection tube and placed at 37° C. for different incubation time. At each time point, a fraction of droplets is broken and MNase immediately inactivated by addition of EGTA (see FIG. 3). DNA fragments are then purified and analyzed by electrophoresis. […]

Like-named read-outs stand apart in the source and are kept apart here.

With `CC/C(=C(\c1ccccc1)c1ccc(OCCN(C)C)cc1)c1ccccc1` [Tamoxifen], the “tumor response to Tamoxifen” value in test [1] (HBCx-22-TamR tumor derivative, previously characterized) is given as “acquired resistance”; in test [1] (HBCx-22 PDX) it was “responsive”.
In the case of `CCCCCOC(=O)Nc1nc(=O)n([C@@H]2O[C@H](C)[C@@H](O)[C@H]2O)cc1F` [Capecitabine], in test [2] (mouse #40, recurrent tumor, second round of Capecitabine, PDX extracted at 1080 mm3 as HBCx-95-CapaR), the “tumor response to Capecitabine (relative tumor volume)” value is recorded as “did not respond”. Further, the “tumor response to Capecitabine” value in test [2] (xenograft derivatives from an individual patient (HBCx-95), before two cycles of treatment) is listed as “initially responsive”.
As for `O=C(O)CN(CCOCCOCCN(CC(=O)O)CC(=O)O)CC(=O)O` [EGTA], the “final concentration of EGTA that fully inactivated MNase in droplets” value at MNase stood at 26 mM.

Source of the values: US20220362771A1, “USE OF DROPLET SINGLE CELL EPIGENOME PROFILING FOR PATIENT STRATIFICATION” (HiFiBio SAS, priority 2018, published 2022).
